Consider 17 molecules from publication PMC12434670 (Journal of Medicinal Chemistry, 2025).

Entries after “also recorded” stand apart in the source; their conditions may differ. Read-outs that look alike come from different tables or passages of the source.

In data set [1] the test system is A/H5N1 (FL22, A/bald eagle/FL/W22-114/2022) pseudovirus. As to the kind of experiment: organism not typed. Format: cell-based, influenza A virus. The note with it: read-out: EC50 for A/H5N1 (FL22) pseudovirus entry.
Data set [2] relates to H1 HA protein (strain A/California/06/09). Type of data set: biochemical, influenza A virus.
The test system of data set [3] is A/H1N1 (Virg09) pseudovirus. The experiment in a line: organism not typed. Type of data set: cell-based, influenza A virus. The settings on record: for EC50: MDCK, 72 h, read-out: EC50 for A/H1N1 (Virg09) pseudovirus entry.
The test system of another data set is MDCK cells. The settings on record: for Cytotoxicity MCC, Microscopy: dog.
Data set [4] deals with A/H1N1 virus A/Virginia/ATCC3/2009 (Virg09). As to the kind of experiment: microbe, parasite or virus in culture. Type of data set: cell-based, influenza A virus.
For data set [5], the system named is A/H1N1 virus Virg09 in Calu-3 cells. The experiment in a line: microbe, parasite or virus in culture. The settings on record: Influenza A virus, H1N1, Calu-3, 72 h, read-out: EC50 in Calu-3 cells infected with Virg09. Format: cell-based.
For data set [6], the system named is A/H1N1 virus A/PR/8/34 (PR8). As to the kind of experiment: microbe, parasite or virus in culture. Format: cell-based. The settings on record: Influenza A virus, MDCK.
Another data set is described as follows: in vitro. The note with it: dog.
In the next data set the test system is A/H1N1 virus. The experiment in a line: microbe, parasite or virus in culture. Type of data set: cell-based, influenza A virus.
For data set [7], the system named is H5 HA (strain A/duck/Hunan/795/2002). Format: cell-based, influenza A virus.
In another data set the target is H1 HA (Influenza A virus, UniProt C3W5S1). The experiment in a line: cell-based.
H1 HA, sequence (C3W5S1 18-344 limits assumed): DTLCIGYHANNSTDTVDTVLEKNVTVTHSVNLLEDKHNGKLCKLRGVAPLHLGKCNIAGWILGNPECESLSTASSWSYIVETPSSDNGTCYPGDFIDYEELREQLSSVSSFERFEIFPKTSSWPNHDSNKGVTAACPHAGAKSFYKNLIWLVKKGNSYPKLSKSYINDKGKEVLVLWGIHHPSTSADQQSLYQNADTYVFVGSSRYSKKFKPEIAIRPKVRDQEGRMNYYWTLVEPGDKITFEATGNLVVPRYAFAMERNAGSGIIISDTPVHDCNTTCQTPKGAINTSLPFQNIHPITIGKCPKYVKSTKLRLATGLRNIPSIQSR
H1 HA, sequence (C3W5S1 345-566 limits assumed): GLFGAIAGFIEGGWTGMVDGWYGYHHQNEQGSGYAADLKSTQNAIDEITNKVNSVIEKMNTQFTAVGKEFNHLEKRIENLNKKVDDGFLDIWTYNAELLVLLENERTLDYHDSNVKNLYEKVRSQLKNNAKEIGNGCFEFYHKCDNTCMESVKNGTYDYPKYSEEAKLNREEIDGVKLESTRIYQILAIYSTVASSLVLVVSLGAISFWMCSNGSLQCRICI
The mark [8] stands for this setting: Influenza A virus, MDCK, read-out: Antiviral EC50 against A/H1N1 virus, Virg09 strain, MTS.
Where [9] appears, read: Influenza A virus, MDCK, read-out: Antiviral EC50 against A/H1N1 virus, Virg09 strain, Microscopy.
The mark [10] stands for this setting: read-out: Antiviral EC50 against A/H1N1 virus, PR8 strain, MTS.
The mark [11] stands for this setting: read-out: Antiviral EC50 against A/H1N1 virus, PR8 strain, Microscopy.
The mark [12] stands for this setting: Influenza A virus, MDCK, read-out: Antiviral EC50 for Virg09 virus.
[13] abbreviates: read-out: Antiviral EC50 against A/H1N1 virus, Virg09 strain, MTS.
The mark [14] stands for this setting: read-out: Antiviral EC50 for PR8 virus.

For the molecule `CCOC(=O)c1c(CSc2ccccc2)n(C)c2cc(Br)c(O)c(CN(C)C)c12` [Arbidol, reference compound], the EC50 in [1] (MDCK, 72 h) was determined as 10000 nM. For the same molecule, in [2], the “Binding of H1 HA to stem antibody C179 after acidic incubation (pH 5.2) in presence of compound” value is listed as “only slightly protected”. In data set [3], the “Fold lower potency than VF-57a in pseudovirus entry” value was approximately 20 fold and the EC50 amounted to 15000 nM.
Consider `O=C1c2c(O)c(=O)ccn2N([C@@H]2c3ccccc3SCc3c2ccc(F)c3F)[C@@H]2COCCN12` [BXA, baloxavir acid], for which the “Cytotoxicity MCC, Microscopy” value with MDCK cells was more than 0.1 µM. Also, the EC50 was 3.2 ± 0.4 nM in [4] (setting [8]); 3.5 nM in [4] (setting [9]); 1.1 nM in [5]; 6.1 ± 1.7 nM in data set [6] (setting [10]); 6.1 ± 2 nM in [6] (setting [11]).
In the case of `Cc1cc(CNC(=O)c2cc(F)cc(C(F)(F)F)c2)c(C)s1` [Compound 22, N-[(2,5-Dimethylthiophen-3-yl)methyl]-3-fluoro-5-(trifluoromethyl)benzamide], the “Cytotoxicity at 100 μM (in words)” value in the data set on MDCK cells was “without showing any cytotoxicity”. For the same molecule, the “Cytotoxicity MCC, Microscopy” value in the data set on MDCK cells was more than 100 µM. The molecule further registered a CC50 in “in vitro” of more than 100000 nM. Moreover, the “ΔΔG (exp), change VF-57a → labelled compound” value in data set [4] worked out at 0.2 kcal/mol. Further, the “ΔΔG (exp), change labelled compound → VF-57a” value in [4] is recorded as “–0.2 kcal/mol”. Besides, the EC50 was 400 nM in data set [4] (setting [8]); 1700 ± 1100 nM in [4] (setting [9]); approximately 1000 nM in data set [4] (setting [12]); 440 ± 190 nM in [4] (setting [13]); 1100 ± 300 nM in data set [6] (setting [10]); 1500 ± 600 nM in data set [6] (setting [11]). In data set [6] (setting [14]), the EC50 is approximately 1000 nM. Besides, the “Selectivity index (ratio of CC50 to EC50, SI)” value with A/H1N1 virus was more than 100.
`Cc1cc(CNC(=O)c2cc(Cl)cc(C(F)(F)F)c2)c(C)s1` [Compound 23, 3-Chloro-N-[(2,5-dimethylthiophen-3-yl)methyl]-5-(trifluoromethyl)benzamide]: the “Inhibition of H5 HA cell-cell fusion at 6.3 μM” value in data set [7] is reported as “partial”. In addition, the “Inhibition of H5 HA cell-cell fusion at 25 μM” value in data set [7] was “almost complete”. In addition, in [7], the “Inhibition of H5 HA cell-cell fusion at 100 μM” value is listed as “complete inhibition”. The EC50 is 800 nM in [1] (MDCK, 72 h); 810 nM in data set [1]; 300 nM in data set [4] (setting [8]); 710 ± 450 nM in data set [4] (setting [9]); 500 nM in [4] (setting [12]); 310 ± 120 nM in data set [4] (setting [13]). The EC50 on H1 HA turned out to be 950 nM; in data set [3], 300 nM; in data set [5], 840 nM; in [6] (setting [10]) it was 920 ± 190 nM; in data set [6] (setting [11]) it was 1100 ± 200 nM; in data set [6] (setting [14]) it was 1000 nM. The EC50 with A/H1N1 virus (Influenza A virus, H1N1, MDCK, read-out: Antiviral EC50 against A/H1N1 virus) is approximately 800 nM. For the same molecule, in data set [2], the “Binding of H1 HA to stem antibody C179 after acidic incubation (pH 5.2) in presence of compound” value is given as “remained significantly higher”. Also, the “Effect of compound binding to HA (exposed to pH 7) on subsequent binding of antibody C179” value in data set [2] (pH 7) is on record as “no effect”. The “Cytotoxicity MCC, Microscopy” value in the data set with MDCK cells is more than 100 µM. The CC50 in the data set “in vitro” is more than 100000 nM.
For the molecule `Cc1cc(CNC(=O)c2cc(Br)cc(C(F)(F)F)c2)c(C)s1` [Compound 24, 3-Bromo-N-[(2,5-dimethylthiophen-3-yl)methyl]-5-(trifluoromethyl)benzamide], the EC50 in data set [4] (setting [12]) and in [6] (setting [14]) was more than 100000 nM each time. For the same molecule, the “Antiviral activity against A/H1N1 virus (in words)” value (“Antiviral activity” below) in the data set on A/H1N1 virus was “abolished the antiviral activity”.
Regarding `Cc1cc(CNC(=O)c2cc(C(F)(F)F)cc(C(F)(F)F)c2)c(C)s1` [Compound 25, N-[(2,5-Dimethylthiophen-3-yl)methyl]-3,5-bis(trifluoromethyl)benzamide], the EC50 in [4] (setting [12]) and in data set [6] (setting [14]) was more than 100000 nM in each case. Besides, the “Antiviral activity” value in the data set with A/H1N1 virus is reported as “abolished the antiviral activity”.
`Cc1cc(Cl)cc(C(=O)NCc2cc(C)sc2C)c1` [Compound 29, 3-Chloro-N-[(2,5-dimethylthiophen-3-yl)methyl]-5-methylbenzamide]: the EC50 in [4] (setting [12]) and in data set [6] (setting [14]) was more than 100000 nM in each case. Besides, the “Antiviral activity” value with A/H1N1 virus is listed as “No activity”.
With `Cc1cc(CNC(=O)c2cc(C(F)(F)F)c(F)c(F)c2F)c(C)s1` [Compound 36, N-((2,5-Dimethylthiophen-3-yl)methyl)-2,3,4-trifluoro-5-(trifluoromethyl)benzamide], the EC50 in data set [4] (setting [12]) and in data set [6] (setting [14]) was more than 100000 nM in each case. Also, the “Antiviral activity” value in the data set with A/H1N1 virus is on record as “abolished the antiviral effect”.
For the molecule `Cc1cc(CNC(=O)c2cc(C(F)(F)F)cc(Cl)c2F)c(C)s1` [Compound 37, 3-Chloro-N-((2,5-dimethylthiophen-3-yl)methyl)-2-fluoro-5-(trifluoromethyl)benzamide], the “Cytotoxicity MCC, Microscopy” value with MDCK cells amounted to 56 ± 22 µM. In “in vitro”, this molecule showed a CC50 of more than 100000 nM. For the same molecule, the EC50 is more than 100000 nM in data set [4] (setting [8]), more than 100000 nM in data set [4] (setting [9]), 2900 nM in data set [6] (setting [10]) and 1600 ± 800 nM in [6] (setting [11]). For the same molecule, in the data set with A/H1N1 virus, the “Antiviral activity” value is “less active”.
Regarding `Cc1cc(CNC(=O)c2cc(Cl)c(F)c(C(F)(F)F)c2)c(C)s1` [Compound 38, 3-Chloro-N-((2,5-dimethylthiophen-3-yl)methyl)-4-fluoro-5-(trifluoromethyl)benzamide], in the data set with MDCK cells, the “Cytotoxicity MCC, Microscopy” value is 40 µM. For the same molecule, in “in vitro”, the CC50 is more than 100000 nM. In addition, in data set [4], the “ΔΔG (exp), change VF-57a → labelled compound” value is “–0.3 kcal/mol”. In addition, the “ΔΔG (exp), change labelled compound → VF-57a” value in [4] worked out at 0.3 kcal/mol. Also, the EC50 in data set [4] (setting [8]) was found to be 100 nM; in data set [4] (setting [9]), 3100 ± 500 nM; in data set [4] (setting [13]), 180 ± 40 nM; in [6] (setting [10]), 270 ± 120 nM; in data set [6] (setting [11]), 1600 ± 800 nM. Moreover, the “Antiviral activity” value in the data set with A/H1N1 virus is recorded as “good antiviral activity”.
Take `Cc1cc(CNC(=O)c2cc(Cl)cc(C(F)(F)F)c2Cl)c(C)s1` [Compound 39, 2,5-Dichloro-N-((2,5-dimethylthiophen-3-yl)methyl)-3-(trifluoromethyl)benzamide]: in the data set on MDCK cells, the “Cytotoxicity MCC, Microscopy” value came to 52 ± 25 µM. In “in vitro”, this molecule yielded a CC50 of more than 100000 nM. The EC50 worked out at 820 ± 610 nM in data set [4] (setting [8]), 8100 ± 500 nM in data set [4] (setting [9]), 5900 ± 3200 nM in data set [6] (setting [10]) and 11000 ± 6000 nM in data set [6] (setting [11]). The “Antiviral activity” value in the data set with A/H1N1 virus is reported as “less active”.
Consider `Cc1cc(CNC(=O)c2cc(F)cc(C(F)(F)F)c2)c(C)o1` [Compound 54, N-((2,5-Dimethylfuran-3-yl)methyl)-3-fluoro-5-(trifluoromethyl)benzamide], for which, in the data set with MDCK cells, the “Cytotoxicity MCC, Microscopy” value stood at 100 ± 0 µM. The same molecule came in with a CC50 in “in vitro” of 79000 ± 5000 nM. The EC50 in data set [4] (setting [8]) came out at 540 ± 60 nM; in data set [4] (setting [9]), 3600 ± 2800 nM; in data set [6] (setting [10]), 470 ± 190 nM; in data set [6] (setting [11]), 540 ± 170 nM.
`Cc1cc(CNC(=O)c2cc(Cl)cc(C(F)(F)F)c2)c(C)o1` [Compound 55, 3-Chloro-N-((2,5-dimethylfuran-3-yl)methyl)-5-(trifluoromethyl)benzamide]: the “Cytotoxicity MCC, Microscopy” value with MDCK cells stood at 33 ± 0 µM. For the same molecule, the CC50 in “in vitro” came to 29000 nM. For the same molecule, the EC50 in data set [4] (setting [8]) is 1100 ± 300 nM; in data set [4] (setting [9]), more than 100000 nM; in data set [6] (setting [10]), 240 ± 80 nM; in data set [6] (setting [11]), 540 ± 370 nM.
As to `Cc1cc(COC(=O)c2cc(F)cc(C(F)(F)F)c2)c(C)s1` [Compound 63, (2,5-Dimethylthiophen-3-yl)methyl 3-fluoro-5-(trifluoromethyl)benzoate], the EC50 in [4] (setting [12]) and in data set [6] (setting [14]) was more than 100000 nM each time. The “Antiviral activity” value in the data set on A/H1N1 virus was “Neither the ester 63 nor the secondary amine 64 showed antiviral activity; also recorded: inactive”.
Consider `Cc1cc(CNCc2cc(F)cc(C(F)(F)F)c2)c(C)s1` [Compound 64, 1-(2,5-Dimethylthiophen-3-yl)-N-(3-fluoro-5-(trifluoromethyl)benzyl)methanamine], for which the EC50 in data set [4] (setting [12]) and in data set [6] (setting [14]) was more than 100000 nM in each case. Moreover, in the data set on A/H1N1 virus, the “Antiviral activity” value was “Neither the ester 63 nor the secondary amine 64 showed antiviral activity; also recorded: inactive”.
For `Cc1cc(C(=O)NCc2cc(F)cc(C(F)(F)F)c2)c(C)s1` [Compound 65, N-(3-Fluoro-5-(trifluoromethyl)benzyl)-2,5-dimethylthiophene-3-carboxamide], the EC50 in data set [4] (setting [12]) and in data set [6] (setting [14]) was more than 100000 nM throughout. Besides, the “Antiviral activity” value in the data set on A/H1N1 virus was “fully inactive”.
With `NC(=O)c1ncn([C@@H]2O[C@H](CO)[C@@H](O)[C@H]2O)n1` [Ribavirin, reference compound], the “Cytotoxicity MCC, Microscopy” value with MDCK cells amounted to 80 ± 20 µM. The CC50 in the data set “in vitro” was more than 250000 nM. Further, the EC50 in data set [4] (setting [8]) was determined as 20000 ± 2000 nM; in data set [4] (setting [9]), 25000 nM; in data set [6] (setting [10]), 38000 ± 3000 nM; in [6] (setting [11]) it was 27000 ± 1000 nM.
